{
  "source": "patent US20080299109A1",
  "about": "“MECHANISM OF ASTRICYTE-NEURON SIGNALING” (Korea Institute of Science and Technology, priority 2007, published 2008)",
  "key": {"CA1 pyramidal cells [1]": {"tested_on": "CA1 pyramidal cells", "experiment": "Current clamp membrane potential of CA1 pyramidal cells in hippocampal slices", "type": "cell-based, rat", "details": "30 nM thrombin", "procedure": "Young rats (Sprague-Dawley, age P15-P20) or mice (C57/B16, age P14-19) were deeply anesthetized with isoflurane and decapitated. The brain was rapidly removed and submerged in an ice-cold oxygenated artificial cerebrospinal fluid (ACSF) comprised of 130 mM NaCl, 24 mM NaHCO3, 3.5 mM KCl, 1.25 mM NaH2PO4, 1 mM CaCl2,3 mM MgCl2, and 10 mM glucose saturated with 95% O2/5% CO2, at pH 7.4.\nThe hemisected brain was glued onto the stage of a vibrating microtome (Leica VT1000 S) and sections of 300 μm thickness were cut and stored in an incubation chamber at room temperature for about 1 h before use. For voltage clamp experiments, the solution used to fill the electrodes was comprised of 140 mM Cs-MeSO4, 10 mM HEPES, 7 mM NaCl, 4 mM Mg-ATP, and 0.3 mM Na3-GTP; the solution for current clamp recordings was comprised of 140 mM K-MeSO4, 10 mM HEPES, 7 mM NaCl, 4 mM Mg-ATP, and 0.3 mM Na3-GTP, and supplemented with 1 mM QX314; and 1 mM QX314 was omitted from some current clamp recordings (e.g., FIG. 9e).\nSlices were placed on the stage of an upright microscope underneath a platinum and nylon restraining grid, and superfused with oxygenated ACSF at room temperature (23° C.), some experiments are performed at 34° C. by a temperature controller (TC-344B, Warner, Hamden). The standard ACSF recording solution was comprised of 130 mM NaCl, 24 mM NaHCO3, 3.5 mM KCl, 1.25 mM NaH2PO4, 1.5 mM CaCl2, 1.5 mM MgCl2, and 10 mM glucose saturated with 95% O2/5% CO2, at pH 7.4. For some experiments 0.5-1 μM TTX, 10 μM NBQX, or 10-20 μM bicuculline were added to the extracellular solution, extracellular Mg^2+ was reduced to 5 μM, and/or extracellular Ca^2+ raised to 2 mM.\nVisually guided whole-cell patch recordings were obtained from CA1 pyramidal neurons in a voltage clamp or current clamp configuration using an Axopatch 200A (Axon Instruments) and a borosilicate patch pipette of 5-7 MΩ resistance. […] Records were filtered at 5 kHz and digitized at 20 kHz using a Digidata 1200 A/D board.\nSynaptic responses were evoked by applying 0.1 ms current injection (1-100 μA) to a bipolar stimulating electrode placed in the stratum radiatum. Thrombin (Calbiochem) concentration was determined as described by Gingrich et al. (2000) using conversion of 1 U/ml=10 nM. TFLLR and thrombin were applied by gravity perfusion at 1.0 ml/min, with extensive washing of perfusion lines, chamber, and objective between experiments to remove all residual thrombin, which has been reported to irreversibly cleave and PAR1 at a pM concentration. Removal of all thrombin ensured that PAR1 receptors were not pre-cleaved by residual thrombin prior to experimentation."}, "[2]": {"tested_on": "cultured wild-type mouse astrocytes", "experiment": "Fura-2 intracellular Ca2+ imaging in cultured wild-type astrocytes", "type": "cell-based", "details": "30 nM thrombin", "procedure": "Cultured astrocytes were prepared from P0-P3 postnatal mice obtained from KIST SPF. The cerebral cortex was dissected free of adherent meninges, minced, and dissociated into single cell suspension by trituration through a Pasteur pipette. All procedures involving the use of animals were reviewed and approved by the Emory University IACUC. Dissociated cells were plated onto either 12 mm glass coverslips or 6 well plates coated with 0.1 mg/ml poly-D-lysine. Cells were grown in a DMEM media (Gibco, cat# 11960-044) supplemented with 25 mM glucose, 10% heat-inactivated horse serum, and 10% heat-inactivated fetal bovine serum, 2 mM glutamine, and 1000 units/ml penicillin-streptomycin. Cultures were maintained at 37° C. in a humidified 5% CO2-containing atmosphere. […] In some experiments, the culture media was replaced 24 hours after plating with DMEM with all added components except glutamine, and cultures were maintained for 4 days before experimentation in glutamine-free media.\nCultured astrocytes were incubated with 5 µM Fura2-AM in […] pluronic acid (Molecular Probes) for 30 min at room temperature, and subsequently transferred to a microscope stage for imaging. The external solution contained 150 mM NaCl, 10 mM HEPES, 3 mM KCl, 2 mM CaCl2, 2 mM MgCl2, and 5.5 mM glucose, and the pH was adjusted to pH 7.3 and osmolarity to 325 mOsm. Intensity images of a 510 nm wavelength were taken at 340 nm and 380 nm excitation wavelengths using either a Micromax Camera (Princeton) or an intensified video camera (PTI), and the two resulting images were used for ratio calculations using Axon Imaging Workbench version 2.2.1."}, "PAR1−/− mouse astrocytes": {"tested_on": "PAR1−/− mouse astrocytes", "experiment": "Fura-2 intracellular Ca2+ imaging in cultured PAR1−/− astrocytes", "type": "cell-based", "details": "30 μM TFLLR, 30 nM thrombin, 10 μM ATP positive control", "procedure": "Cultured astrocytes were prepared from P0-P3 postnatal mice obtained from KIST SPF. The cerebral cortex was dissected free of adherent meninges, minced, and dissociated into single cell suspension by trituration through a Pasteur pipette. All procedures involving the use of animals were reviewed and approved by the Emory University IACUC. Dissociated cells were plated onto either 12 mm glass coverslips or 6 well plates coated with 0.1 mg/ml poly-D-lysine. Cells were grown in a DMEM media (Gibco, cat# 11960-044) supplemented with 25 mM glucose, 10% heat-inactivated horse serum, and 10% heat-inactivated fetal bovine serum, 2 mM glutamine, and 1000 units/ml penicillin-streptomycin. Cultures were maintained at 37° C. in a humidified 5% CO2-containing atmosphere. Astrocyte cultures prepared in this way were previously determined by GFAP (glial fibrillary acidic protein) staining to be greater than 95% astrocytes (Nicole et al., 2005). In some experiments, the culture media was replaced 24 hours after plating with DMEM with all added components except glutamine, and cultures were maintained for 4 days before experimentation in glutamine-free media.\nCultured astrocytes were incubated with 5 µM Fura2-AM in […] pluronic acid (Molecular Probes) for 30 min at room temperature, and subsequently transferred to a microscope stage for imaging. […]"}, "CA1 pyramidal cells [3]": {"tested_on": "CA1 pyramidal cells", "experiment": "Voltage clamp of CA1 pyramidal cells in hippocampal slices, low Mg2+", "type": "cell-based, rat", "details": "−60 mV, thrombin 30 nM, TFLLR 30 μM, with and without APV"}},
  "data": [
    {"substance": "thrombin", "values": [
      {"measurement": "membrane depolarization", "setting": "CA1 pyramidal cells [1]; 1.5 mM Mg^2+, n=22", "value": "5.7±0.9", "unit": "mV"},
      {"measurement": "depolarization of the membrane potential at 23° C.", "setting": "CA1 pyramidal cells [1]; with or without APV 100 μM", "value": "5.8±1.7", "unit": "mV"},
      {"measurement": "depolarization of the membrane potential at 34° C.", "setting": "CA1 pyramidal cells [1]; with or without APV 100 μM", "value": "4.3±1.0", "unit": "mV"},
      {"measurement": "change in Fura-2 ratio", "setting": "[2]; without or after pretreatment with 1 μM BMS200261", "value": "150.9±17.4", "unit": "%"},
      {"measurement": "level of astrocytic intracellular Ca^2+ (Fura-2 fluorescence ratio)", "setting": "[2]; 30 μM TFLLR, 10 μM bradykinin, 50 μM 2-methyl-thio-ATP, 10 μM ATP", "value": "robust increase"},
      {"measurement": "intracellular Ca^2+ concentration in PAR1−/− astrocytes", "setting": "PAR1−/− mouse astrocytes", "value": "did not cause an increase"},
      {"measurement": "amplitude of inward current", "setting": "CA1 pyramidal cells [3]; 0.5 μM TTX, 5 μM Mg^2+", "value": "8.8±3.1", "unit": "pA"},
      {"measurement": "membrane current variance", "setting": "CA1 pyramidal cells [3]; TTX, low Mg^2+", "value": "12.4±1.1", "unit": "pA^2"}
    ]}
  ]
}
